Measurements reported in ChEMBL document CHEMBL5252610, “Synthesis, Characterization, and Bioactivity of the Lichen Pigments Pulvinamide, Rhizocarpic Acid, and Epanorin and Congeners” (J Nat Prod, 2023).
Values after ≈ are worked out from the molar mass of the structure shown.

Assays:
[1] = Cytotoxicity against human NFF cells assessed as reduction in cell viability incubated for 96 hrs by resazurin based assay; assay type: toxicity; settings: read-out: MIC
[2] = Anticancer activity against mouse NS-1 cells assessed as reduction in cell viability incubated for 96 hrs by resazurin based assay; assay type: functional
Saccharomyces cerevisiae = assay: Antifungal activity against Saccharomyces cerevisiae ATCC 9763 assessed as bacterial growth inhibition incubated for 48 hrs by bromocresol green based broth dilution assay; assay type: functional
Staphylococcus aureus = assay: Antibacterial activity against Staphylococcus aureus ATCC 25923 assessed as bacterial growth inhibition incubated for 48 hrs by resazurin microtiter assay; assay type: functional
Candida albicans = assay: Antifungal activity against Candida albicans ATCC 10231 assessed as bacterial growth inhibition incubated for 48 hrs by bromocresol green based broth dilution assay; assay type: functional
Giardia intestinalis = assay: Antiparasitic activity against Giardia intestinalis 713 assessed as bacterial growth inhibition incubated for 96 hrs by microtiter assay; assay type: functional; settings: Giardia duodenalis
Bacillus subtilis = assay: Antibacterial activity against Bacillus subtilis ATCC 6633 assessed as bacterial growth inhibition incubated for 48 hrs by resazurin microtiter assay; assay type: functional
Spodoptera littoralis [3] = assay: Insecticidal activity against Spodoptera littoralis neonate larvae assessed as reduction in weight gain of larvae; assay type: functional
Spodoptera littoralis [4] = assay: Insecticidal activity against Spodoptera littoralis assessed as reduction in number of pupae in adulthood (Rvb=90%); assay type: functional; design: scale not given: the % may be the effect or the level left

CSC[S+]([O-])C[C@H](CO)NC(=O)/C=C/c1c(C)[nH]c(=O)[nH]c1=O (stereo partly drawn)
MCC at 96 h [1]: 0.6 µg/mL
MIC [2]: 0.6 µg/mL (≈ 1.66 µM)

COC(=O)[C@H](CC(C)C)NC(=O)/C(=C1/OC(=O)C(c2ccccc2)=C1O)c1ccccc1
MCC at 96 h [1]: > 100 µg/mL
MIC (Saccharomyces cerevisiae): > 200 µg/mL
MIC (Staphylococcus aureus): > 100 µg/mL
MIC (Candida albicans): > 200 µg/mL
MIC (Giardia intestinalis): 50 µg/mL (≈ 115 µM)
MIC (Bacillus subtilis): > 100 µg/mL
MIC [2]: 25 µg/mL (≈ 57.4 µM)

O=C1O/C(=C(/C(=O)N[C@@H](Cc2ccccc2)C(=O)O)c2ccccc2)C(O)=C1c1ccccc1
MCC at 96 h [1]: > 100 µg/mL
MIC (Saccharomyces cerevisiae): > 200 µg/mL
MIC (Staphylococcus aureus): > 100 µg/mL
MIC (Candida albicans): > 200 µg/mL
MIC (Giardia intestinalis): > 100 µg/mL
MIC (Bacillus subtilis): 100 µg/mL (≈ 220 µM)
MIC [2]: > 100 µg/mL

COC(=O)[C@H](Cc1ccccc1)NC(=O)/C(=C1/OC(=O)C(c2ccccc2)=C1O)c1ccccc1
MCC at 96 h [1]: > 100 µg/mL
ED50 (Spodoptera littoralis [3]): 71 µmol/g
MIC (Saccharomyces cerevisiae): > 200 µg/mL
Activity (Spodoptera littoralis [4]): 25%
MIC (Staphylococcus aureus): > 100 µg/mL
MIC (Candida albicans): > 200 µg/mL
MIC (Giardia intestinalis): 100 µg/mL (≈ 213 µM)
MIC (Bacillus subtilis): 50 µg/mL (≈ 106 µM)
MIC [2]: 3.1 µg/mL (≈ 6.6 µM)

NC(=O)/C(=C1/OC(=O)C(c2ccccc2)=C1O)c1ccccc1
MIC (Saccharomyces cerevisiae): 100 µg/mL (≈ 325 µM)
MIC (Staphylococcus aureus): > 100 µg/mL
MIC (Candida albicans): 200 µg/mL (≈ 651 µM)
MIC (Bacillus subtilis): 50 µg/mL (≈ 163 µM)

COC(=O)[C@@H](Cc1ccccc1)NC(=O)/C(=C1/OC(=O)C(c2ccccc2)=C1O)c1ccccc1
MCC at 96 h [1]: > 100 µg/mL
MIC (Saccharomyces cerevisiae): > 200 µg/mL
MIC (Staphylococcus aureus): 50 µg/mL (≈ 106 µM)
MIC (Candida albicans): > 200 µg/mL
MIC (Giardia intestinalis): 25 µg/mL (≈ 53.2 µM)
MIC (Bacillus subtilis): 50 µg/mL (≈ 106 µM)
MIC [2]: 50 µg/mL (≈ 106 µM)

CN(CC[C@H](N)CC(=O)N[C@H]1C=C[C@H](n2ccc(N)nc2=O)O[C@@H]1C(=O)O)C(=N)N.Cl
MIC (Saccharomyces cerevisiae): 3.1 µg/mL
MIC (Candida albicans): > 200 µg/mL

CC(C)C[C@H](NC(=O)/C(=C1/OC(=O)C(c2ccccc2)=C1O)c1ccccc1)C(=O)O
MCC at 96 h [1]: > 100 µg/mL
MIC (Saccharomyces cerevisiae): > 200 µg/mL
MIC (Staphylococcus aureus): > 100 µg/mL
MIC (Candida albicans): > 200 µg/mL
MIC (Giardia intestinalis): > 100 µg/mL
MIC (Bacillus subtilis): > 100 µg/mL
MIC [2]: > 100 µg/mL

COC(=O)[C@@H](CC(C)C)NC(=O)/C(=C1/OC(=O)C(c2ccccc2)=C1O)c1ccccc1
MCC at 96 h [1]: > 100 µg/mL
MIC (Saccharomyces cerevisiae): > 200 µg/mL
MIC (Staphylococcus aureus): 100 µg/mL (≈ 230 µM)
MIC (Candida albicans): > 200 µg/mL
MIC (Giardia intestinalis): 25 µg/mL (≈ 57.4 µM)
MIC (Bacillus subtilis): 50 µg/mL (≈ 115 µM)
MIC [2]: 50 µg/mL (≈ 115 µM)

Cc1ncc([N+](=O)[O-])n1CCO [METRONIDAZOLE]
MIC (Giardia intestinalis): 0.3 µg/mL (≈ 1.75 µM)

O=C1O/C(=C(/C(=O)O)c2ccccc2)C(O)=C1c1ccccc1 [PULVIC ACID]
MIC (Saccharomyces cerevisiae): > 100 µg/mL
MIC (Staphylococcus aureus): > 100 µg/mL
MIC (Candida albicans): > 100 µg/mL
MIC (Bacillus subtilis): > 100 µg/mL

O=C1OC2=C(c3ccccc3)C(=O)OC2=C1c1ccccc1 [PULVINIC DILACTONE]
MIC (Saccharomyces cerevisiae): > 100 µg/mL
MIC (Staphylococcus aureus): > 100 µg/mL
MIC (Candida albicans): > 100 µg/mL
MIC (Bacillus subtilis): > 100 µg/mL

CN(C)[C@@H]1C(O)=C(C(N)=O)C(=O)[C@@]2(O)C(O)=C3C(=O)c4c(O)cccc4[C@@](C)(O)[C@H]3C[C@@H]12 [TETRACYCLINE]
MIC (Staphylococcus aureus): 12.5 µg/mL (≈ 28.1 µM)
MIC (Bacillus subtilis): 6.3 µg/mL (≈ 14.2 µM)
